Experiment: Intramolecular Suzuki-Miyaura C(sp3)-C(sp2) coupling (cis-4-chlorocyclobut-2-ene carboxylate + E-vinyl-BPin) followed by spontaneous 4pi-electrocyclic ring opening to the (E,E,E)-trienoate macrolactone; Pd(PPh3)4 10 mol%, Cs2CO3 5 equiv
Settings: 19-membered ring, THF/H2O 3:1, 2.0 mM, 25.0 °C

Compound: C/C(=C\C=C\c1ccc(C)cc1)[C@H]1CC(=O)NC[C@H](O[Si](C)(C)C(C)(C)C)[C@H](C)C(=O)NCC/C=C/C=C/C=C/C(=O)O1 [cis-31j -> 32j (FR7, p-tolyl-dienyl)]
- ring closure, isolated yield (from C/C(=C\C=C\c1ccc(C)cc1)[C@@H](CC(=O)NC[C@H](O[Si](C)(C)C(C)(C)C)[C@H](C)C(=O)NCC/C=C/B1OC(C)(C)C(C)(C)O1)OC(=O)C1C=CC1Cl): 20%

Compound: C/C(=C\Br)[C@H]1CC(=O)NC[C@H](O[Si](C)(C)C(C)(C)C)[C@H](C)C(=O)NCC/C=C/C=C/C=C/C(=O)O1 [cis-31m -> 32m (FR10, bromovinyl)]
- ring closure, isolated yield (from C/C(=C\Br)[C@@H](CC(=O)NC[C@H](O[Si](C)(C)C(C)(C)C)[C@H](C)C(=O)NCC/C=C/B1OC(C)(C)C(C)(C)O1)OC(=O)C1C=CC1Cl): 54%

Compound: CCCCCCCCCCC[C@H]1CC(=O)NC[C@H](O[Si](C)(C)C(C)(C)C)[C@H](C)C(=O)NCC/C=C/C=C/C=C/C(=O)O1 [cis-31d -> 32d (FR1, C11H23 side chain)]
- ring closure, isolated yield (from CCCCCCCCCCC[C@@H](CC(=O)NC[C@H](O[Si](C)(C)C(C)(C)C)[C@H](C)C(=O)NCC/C=C/B1OC(C)(C)C(C)(C)O1)OC(=O)C1C=CC1Cl): 56%

Compound: C/C(=C\C=C\C(F)(F)F)[C@H]1CC(=O)NC[C@H](O[Si](C)(C)C(C)(C)C)[C@H](C)C(=O)NCC/C=C/C=C/C=C/C(=O)O1
- ring closure, isolated yield (from C/C(=C\C=C\C(F)(F)F)[C@@H](CC(=O)NC[C@H](O[Si](C)(C)C(C)(C)C)[C@H](C)C(=O)NCC/C=C/B1OC(C)(C)C(C)(C)O1)OC(=O)C1C=CC1Cl): 73%

Compound: C[C@@H]1C(=O)NCC/C=C/C=C/C=C/C(=O)O[C@@H](C)CC(=O)NC[C@@H]1O[Si](C)(C)C(C)(C)C
- ring closure, isolated yield (from C[C@H](C(=O)NCC/C=C/B1OC(C)(C)C(C)(C)O1)[C@H](CNC(=O)C[C@H](C)OC(=O)C1C=CC1Cl)O[Si](C)(C)C(C)(C)C): 84%

Compound: C/C(=C\C=C\c1ccc(C(F)(F)F)cc1)[C@H]1CC(=O)NC[C@H](O[Si](C)(C)C(C)(C)C)[C@H](C)C(=O)NCC/C=C/C=C/C=C/C(=O)O1 [cis-31k -> 32k (FR8, p-CF3-phenyl-dienyl)]
- ring closure, isolated yield (from C/C(=C\C=C\c1ccc(C(F)(F)F)cc1)[C@@H](CC(=O)NC[C@H](O[Si](C)(C)C(C)(C)C)[C@H](C)C(=O)NCC/C=C/B1OC(C)(C)C(C)(C)O1)OC(=O)C1C=CC1Cl): 47%

Compound: CCCCCCC/C=C/C=C(\C)[C@H]1CC(=O)NCCCC(=O)NCC/C=C/C=C/C=C/C(=O)O1 [cis-31g -> FR4 (no C12-Me, no C13-O)]
- ring closure, isolated yield (from CCCCCCC/C=C/C=C(\C)[C@@H](CC(=O)NCCCC(=O)NCC/C=C/B1OC(C)(C)C(C)(C)O1)OC(=O)C1C=CC1Cl): 55%

Compound: C[C@@H]1C(=O)NCC/C=C/C=C/C=C/C(=O)O[C@@H](c2ccc3ccccc3c2)CC(=O)NC[C@@H]1O[Si](C)(C)C(C)(C)C [cis-31n -> 32n (FR11, 2-naphthyl)]
- ring closure, isolated yield (from C[C@H](C(=O)NCC/C=C/B1OC(C)(C)C(C)(C)O1)[C@H](CNC(=O)C[C@@H](OC(=O)C1C=CC1Cl)c1ccc2ccccc2c1)O[Si](C)(C)C(C)(C)C): 51%

Compound: CCCCCCC/C=C/C=C/C=C(\C)[C@H]1CC(=O)NC[C@H](O[Si](C)(C)C(C)(C)C)[C@H](C)C(=O)NCC/C=C/C=C/C=C/C(=O)O1 [cis-31c -> 32c (FR256523)]
- ring closure, isolated yield (from CCCCCCC/C=C/C=C/C=C(\C)[C@@H](CC(=O)NC[C@H](O[Si](C)(C)C(C)(C)C)[C@H](C)C(=O)NCC/C=C/B1OC(C)(C)C(C)(C)O1)OC(=O)C1C=CC1Cl): 71%

Compound: CCCCCCC/C=C/C=C(\C)[C@H]1CC(=O)NC[C@H](O[Si](C)(C)C(C)(C)C)[C@H](C)C(=O)NCC/C=C/C=C/C=C/C(=O)O1 [cis-31a -> 32a (FR252921)]
- ring closure, isolated yield (from CCCCCCC/C=C/C=C(\C)[C@@H](CC(=O)NC[C@H](O[Si](C)(C)C(C)(C)C)[C@H](C)C(=O)NCC/C=C/B1OC(C)(C)C(C)(C)O1)OC(=O)C1C=CC1Cl): 74%

Compound: CCCCCCCCC/C=C/C=C(\C)[C@H]1CC(=O)NC[C@H](O[Si](C)(C)C(C)(C)C)[C@H](C)C(=O)NCC/C=C/C=C/C=C/C(=O)O1 [cis-31b -> 32b (FR252922)]
- ring closure, isolated yield (from CCCCCCCCC/C=C/C=C(\C)[C@@H](CC(=O)NC[C@H](O[Si](C)(C)C(C)(C)C)[C@H](C)C(=O)NCC/C=C/B1OC(C)(C)C(C)(C)O1)OC(=O)C1C=CC1Cl): 82%

Compound: C[C@@H]1C(=O)NCC/C=C/C=C/C=C/C(=O)O[C@@H](c2ccc(Br)cc2)CC(=O)NC[C@@H]1O[Si](C)(C)C(C)(C)C [cis-31l -> 32l (FR9, 4-bromophenyl)]
- ring closure, isolated yield (from C[C@H](C(=O)NCC/C=C/B1OC(C)(C)C(C)(C)O1)[C@H](CNC(=O)C[C@@H](OC(=O)C1C=CC1Cl)c1ccc(Br)cc1)O[Si](C)(C)C(C)(C)C): 58%

Compound: C/C(=C\C=C\c1ccccc1)[C@H]1CC(=O)NC[C@H](O[Si](C)(C)C(C)(C)C)[C@H](C)C(=O)NCC/C=C/C=C/C=C/C(=O)O1 [cis-31i -> 32i (FR6, Ph-dienyl)]
- ring closure, isolated yield (from C/C(=C\C=C\c1ccccc1)[C@@H](CC(=O)NC[C@H](O[Si](C)(C)C(C)(C)C)[C@H](C)C(=O)NCC/C=C/B1OC(C)(C)C(C)(C)O1)OC(=O)C1C=CC1Cl): 80%

Compound: CCCCCCC/C=C/C=C(\C)[C@H]1CC(=O)NC[C@H](O[Si](C)(C)C(C)(C)C)CC(=O)NCC/C=C/C=C/C=C/C(=O)O1 [cis-31f -> 32f (FR3, C12-desmethyl)]
- ring closure, isolated yield (from CCCCCCC/C=C/C=C(\C)[C@@H](CC(=O)NC[C@@H](CC(=O)NCC/C=C/B1OC(C)(C)C(C)(C)O1)O[Si](C)(C)C(C)(C)C)OC(=O)C1C=CC1Cl): 73%
